According to patent US10159640B2, “Prebiotic oral care compositions containing amino acids” (COLGATE-PALMOLIVE COMPANY, priority 2013, dated 2018):

How the values were obtained:
Format in all cases: cell-based
Actinomyces naeslundii = test: Metabolic activity, Biolog phenotype microarray; conditions: control without dipeptide = 1
Procedure: (§1) The extent of metabolic activity of the tested bacteria in the presence of the above-mentioned dipeptides after 24 hours and 48 hours was investigated through a high throughput phenotype microarray system (PM) for microbial cells (Biolog Inc.). Each PM can contain up to 95 different biochemical compounds (e.g. di-peptides) that may act as substrates for bacteria as well as one negative control, not containing the substrates. Microarray plates were used in which the different wells of each plate were pre-loaded (by the manufacturer, Biolog Inc.) with different di-peptides to be tested. Each bacterial species was tested using a separate microarray plate. Thus, a single bacterial species was tested with a variety of dipeptides on each particular plate. The microarrays are based on redox technology, using cell respiration as a universal reporter. Active cell respiration results in the reduction of a tetrazolium dye and in the formation of a strong color—for example, when using the tetrazolium dye “Biolog Redox Dye Mix D”, the color changes from transparent/colourless to purple when the dye is reduced. The observation of this color change indicates which of the substrates improve the metabolic activity and health of the cells. Each bacterial species was collected from blood agar plates (incubated for 48 hours anaerobically at 37° C.) and transferred to an IF-0 Base inoculation fluid (Biolog Inc.), which is a nutritionally poor medium. The resulting cell suspension was adjusted to a transmittance of 42% (relative to the transmittance of the base inoculation fluid with no bacterial species present) at 492 nm using a BioRad SmartSpec 3000 Photometer (the adjustment being effected by adding either further inoculation fluid or further bacteria until the transmittance of 42% was achieved). A 1:5 dilution of this suspension was prepared by mixing 3 mL of the 42% transmittance cell suspension with 15 mL of an inoculation fluid (which inoculation fluid was formed by mixing 11.6 mL sterile water, 62.5 mL IF-0 base inoculation fluid and 0.9 mL of the tetrazolium dye “Biolog Redox Dye mix D”), resulting in a final cell density which was equal to 85% transmittance using a BioRad SmartSpec 3000 Photometer. 680 μL of a 2M sodium succinate/200 μM ferric citrate solution in distilled water was added to 68 mL of the 85% transmittance cell suspension and 100 μL of this mixture was added to each well (the various di-peptides being already present in powder form in the relevant wells of the plate as obtained from the supplier i.e. Biolog Inc.). All plates were incubated in an anaerobic atmosphere at 37° C. Color changes were measured spectrophotometrically at 492 nm (Thermo Scientific Multiskan Ascent) at 24 hrs and 48 hrs using the same plate at both time points. […] After 24 hrs and 48 hrs under continuous shaking in a Multiscan microplate reader, the optical density (OD) of the synthetic medium at 24 hours and 48 hours was measured (using the microplate reader) at a wavelength of 492 nm for each combination of bacterium/dipeptide, and for each of their respective controls (i.e. which contained the particular bacterium but no dipeptide). […] The experiment was carried out three times for each combination of bacterium with dipeptide, with each repeat being carried out on a different day (thus providing three biological replicas). The controls were also carried out three times, as above. The values shown are the average (mean) of the three single values obtained (as detailed above) for each combination of bacterium with dipeptide, at 24 hrs and at 48 hrs.

Actinomyces viscosus = test: Metabolic activity, Biolog phenotype microarray; conditions: control without dipeptide = 1
Procedure: as §1

[1] = system: Aggregatibacter actinomycetemcomitans; test: Metabolic activity, Biolog phenotype microarray; conditions: control without dipeptide = 1
Procedure: as §1

Capnocytophaga sputigena = test: Metabolic activity, Biolog phenotype microarray; conditions: control without dipeptide = 1
Procedure: as §1

Fusobacterium nucleatum = test: Metabolic activity, Biolog phenotype microarray; conditions: control without dipeptide = 1
Procedure: as §1

Porphyromonas gingivalis = test: Metabolic activity, Biolog phenotype microarray; conditions: control without dipeptide = 1
Procedure: as §1

Prevotella intermedia = test: Metabolic activity, Biolog phenotype microarray; conditions: control without dipeptide = 1
Procedure: as §1

Streptococcus gordonii = test: Metabolic activity, Biolog phenotype microarray; conditions: control without dipeptide = 1
Procedure: as §1

Streptococcus mitis = test: Metabolic activity, Biolog phenotype microarray; conditions: control without dipeptide = 1
Procedure: as §1

Streptococcus mutans = test: Metabolic activity, Biolog phenotype microarray; conditions: control without dipeptide = 1
Procedure: as §1

Streptococcus salivarius = test: Metabolic activity, Biolog phenotype microarray; conditions: control without dipeptide = 1
Procedure: as §1

Streptococcus sanguinis = test: Metabolic activity, Biolog phenotype microarray; conditions: control without dipeptide = 1
Procedure: as §1

Streptococcus sobrinus = test: Metabolic activity, Biolog phenotype microarray; conditions: control without dipeptide = 1
Procedure: as §1

Tannerella forsythia = test: Metabolic activity, Biolog phenotype microarray; conditions: control without dipeptide = 1
Procedure: as §1

Veillonella parvula = test: Metabolic activity, Biolog phenotype microarray; conditions: control without dipeptide = 1
Procedure: as §1

[2] = system: beneficial oral bacteria and pathogenic oral bacteria; test: Metabolic activity, whole panel: prebiotic effect; conditions: 48 hrs; threshold value of 2
Procedure: Substrates that were able to increase the metabolic activity of at least one of the above beneficial bacteria while not or only minimally increasing the growth of the pathogenic bacteria are considered to be prebiotic substrates. The extent of metabolic activity of the tested bacteria in the presence of the above-mentioned dipeptides after 24 hours and 48 hours was investigated through a high throughput phenotype microarray system (PM) for microbial cells (Biolog Inc.). Each PM can contain up to 95 different biochemical compounds (e.g. di-peptides) that may act as substrates for bacteria as well as one negative control, not containing the substrates. Microarray plates were used in which the different wells of each plate were pre-loaded (by the manufacturer, Biolog Inc.) with different di-peptides to be tested. Each bacterial species was tested using a separate microarray plate. Thus, a single bacterial species was tested with a variety of dipeptides on each particular plate. The microarrays are based on redox technology, using cell respiration as a universal reporter. Active cell respiration results in the reduction of a tetrazolium dye and in the formation of a strong color—for example, when using the tetrazolium dye “Biolog Redox Dye Mix D”, the color changes from transparent/colourless to purple when the dye is reduced. The observation of this color change indicates which of the substrates improve the metabolic activity and health of the cells. Each bacterial species was collected from blood agar plates (incubated for 48 hours anaerobically at 37° C.) and transferred to an IF-0 Base inoculation fluid (Biolog Inc.), which is a nutritionally poor medium. The resulting cell suspension was adjusted to a transmittance of 42% (relative to the transmittance of the base inoculation fluid with no bacterial species present) at 492 nm using a BioRad SmartSpec 3000 Photometer (the adjustment being effected by adding either further inoculation fluid or further bacteria until the transmittance of 42% was achieved). A 1:5 dilution of this suspension was prepared by mixing 3 mL of the 42% transmittance cell suspension with 15 mL of an inoculation fluid (which inoculation fluid was formed by mixing 11.6 mL sterile water, 62.5 mL IF-0 base inoculation fluid and 0.9 mL of the tetrazolium dye “Biolog Redox Dye mix D”), resulting in a final cell density which was equal to 85% transmittance using a BioRad SmartSpec 3000 Photometer. 680 μL of a 2M sodium succinate/200 μM ferric citrate solution in distilled water was added to 68 mL of the 85% transmittance cell suspension and 100 μL of this mixture was added to each well (the various di-peptides being already present in powder form in the relevant wells of the plate as obtained from the supplier i.e. Biolog Inc.). All plates were incubated in an anaerobic atmosphere at 37° C. Color changes were measured spectrophotometrically at 492 nm (Thermo Scientific Multiskan Ascent) at 24 hrs and 48 hrs using the same plate at both time points. […] After 24 hrs and 48 hrs under continuous shaking in a Multiscan microplate reader, the optical density (OD) of the synthetic medium at 24 hours and 48 hours was measured (using the microplate reader) at a wavelength of 492 nm for each combination of bacterium/dipeptide, and for each of their respective controls (i.e. which contained the particular bacterium but no dipeptide). […] The experiment was carried out three times for each combination of bacterium with dipeptide, with each repeat being carried out on a different day (thus providing three biological replicas). The controls were also carried out three times, as above. The values shown are the average (mean) of the three single values obtained (as detailed above) for each combination of bacterium with dipeptide, at 24 hrs and at 48 hrs. […] This value was selected in order to exclude low-stimulating metabolites and avoid false positive results.

## Glu-Trp
Actinomyces naeslundii; 24 hrs
  metabolic activity: OD 492 nm divided by OD of control: 1.1008
Actinomyces naeslundii; 48 hrs
  metabolic activity: OD 492 nm divided by OD of control: 1.2040
Actinomyces viscosus; 24 hrs
  metabolic activity: OD 492 nm divided by OD of control: 1.5845
Actinomyces viscosus; 48 hrs
  metabolic activity: OD 492 nm divided by OD of control: 2.1016
[1]; 24 hrs
  metabolic activity: OD 492 nm divided by OD of control: 0.9494
[1]; 48 hrs
  metabolic activity: OD 492 nm divided by OD of control: 0.8665
Capnocytophaga sputigena; 24 hrs
  metabolic activity: OD 492 nm divided by OD of control: 1.7818
Capnocytophaga sputigena; 48 hrs
  metabolic activity: OD 492 nm divided by OD of control: 1.4150
Fusobacterium nucleatum; 24 hrs
  metabolic activity: OD 492 nm divided by OD of control: 0.9011
Fusobacterium nucleatum; 48 hrs
  metabolic activity: OD 492 nm divided by OD of control: 0.8364
Porphyromonas gingivalis; 24 hrs
  metabolic activity: OD 492 nm divided by OD of control: 0.9385
Porphyromonas gingivalis; 48 hrs
  metabolic activity: OD 492 nm divided by OD of control: 0.8770
Prevotella intermedia; 24 hrs
  metabolic activity: OD 492 nm divided by OD of control: 1.0170
Prevotella intermedia; 48 hrs
  metabolic activity: OD 492 nm divided by OD of control: 0.9148
Streptococcus gordonii; 24 hrs
  metabolic activity: OD 492 nm divided by OD of control: 1.1537
Streptococcus gordonii; 48 hrs
  metabolic activity: OD 492 nm divided by OD of control: 1.4320
Streptococcus mitis; 24 hrs
  metabolic activity: OD 492 nm divided by OD of control: 0.9457
Streptococcus mitis; 48 hrs
  metabolic activity: OD 492 nm divided by OD of control: 0.9396
Streptococcus mutans; 24 hrs
  metabolic activity: OD 492 nm divided by OD of control: 0.9492
Streptococcus mutans; 48 hrs
  metabolic activity: OD 492 nm divided by OD of control: 1.0170
Streptococcus salivarius; 24 hrs
  metabolic activity: OD 492 nm divided by OD of control: 1.0068
Streptococcus salivarius; 48 hrs
  metabolic activity: OD 492 nm divided by OD of control: 0.9525
Streptococcus sanguinis; 24 hrs
  metabolic activity: OD 492 nm divided by OD of control: 0.9983
Streptococcus sanguinis; 48 hrs
  metabolic activity: OD 492 nm divided by OD of control: 1.0208
Streptococcus sobrinus; 24 hrs
  metabolic activity: OD 492 nm divided by OD of control: 1.0018
Streptococcus sobrinus; 48 hrs
  metabolic activity: OD 492 nm divided by OD of control: 0.9874
Tannerella forsythia; 24 hrs
  metabolic activity: OD 492 nm divided by OD of control: 0.9320
Tannerella forsythia; 48 hrs
  metabolic activity: OD 492 nm divided by OD of control: 0.9303
Veillonella parvula; 24 hrs
  metabolic activity: OD 492 nm divided by OD of control: 0.8378
Veillonella parvula; 48 hrs
  metabolic activity: OD 492 nm divided by OD of control: 0.7873
[2]
  prebiotic effects (metabolic activity): exhibited prebiotic effects
